Test [1] relates to rat I7 (rI7) OR, rI7(RDY). Set-up: method as in PMID 16990513, PMID 25550517. The settings on record: neurons expressing rI7(RDY); cited from earlier work.
The target of test [2] is mβ2AR::GFP fusion Y326A (Mus musculus, UniProt P18762, Y326A). The test is described as follows: cell-based. As to conditions: read-out: Maximum response (% of mβ2AR::GFP). The method, then:
(§1) Calcium-based Fluorometric Imaging Plate Reader (FLIPR) experiments were performed as described previously. Mutants analyzed in each figure come from the same FLIPR experiment. […] Relative Fluorescent Units were baseline corrected by subtracting the lowest fluorescent measure for each experiment and a curve was fitted using a 3 parameters model (Hill Slope = 1) using the GraphPad software. Half maximal effective concentrations (EC50) were then calculated and are given in nM. The maximum response, as a percent of wild type, was calculated by reporting the span for a mutant over the span for the wild type.

The target of test [3] is mβ2AR::GFP fusion mouse C327R (Mus musculus, UniProt P18762, C327R). As to the kind of experiment: cell-based. The settings on record: read-out: Maximum response (% of mβ2AR::GFP). As to the method:
as §1

In test [4] the target is mβ2AR::GFP fusion mouse E268A (Mus musculus, UniProt P18762, E268A). As to the kind of experiment: cell-based. The settings on record: read-out: Maximum response (% of mβ2AR::GFP), span of mutant over span of wild type; Fig 4K. As to the method:
as §1

Test [5] addresses mβ2AR::GFP fusion mouse RDY (Mus musculus, UniProt P18762, D130R/R131D). The test is described as follows: cell-based. As to conditions: Fig 4K. The method, then: as §1
The target in test [6] is mβ2AR::GFP fusion no-NxS (N6A and N15A) (Mus musculus, UniProt P18762, N15A/N6A). The test is described as follows: cell-based. As to conditions: read-out: Maximum response (% of mβ2AR::GFP). The method, then:
as §1

Test [7] deals with mβ2AR::GFP fusion ΔCt➔E338 (Mus musculus, UniProt P18762). The test is described as follows: cell-based. The settings on record: read-out: Maximum response (% of mβ2AR::GFP). As to the method: as §1
Test [8] deals with mβ2AR::GFP fusion ΔCt➔L339 (Mus musculus, UniProt P18762). The test is described as follows: cell-based. As to conditions: read-out: Maximum response (% of mβ2AR::GFP). As to the method:
as §1

The target in test [9] is mβ2AR::GFP fusion ΔCt➔Y350 (Mus musculus, UniProt P18762). The test is described as follows: cell-based. As to conditions: read-out: Maximum response (% of mβ2AR::GFP). The method, then: as §1
The subject of test [10] is mβ2AR::GFP fusion M71-Nt/Y326A/ΔCt➔R328. As to conditions: FLIPR dose response; Fig 6E and 6F, comparable to mock. The method, then:
as §1

The target in test [11] is mβ2AR::GFP fusion M71-Nt/mβ2AR/M71-Ct (Mus musculus, UniProt P18762). The settings on record: span of mutant over span of wild type; Fig 7. The method, then: as §1
Test [12] deals with mβ2AR::GFP fusion NtΔ9AA/Y326A/ΔCt➔R328. The settings on record: FLIPR dose response; Fig 6E and 6F, comparable to mock. As to the method:
as §1

In test [13] the target is mβ2AR::GFP fusion NtΔ9AA/mβ2AR/M71-Ct (Mus musculus, UniProt P18762). The settings on record: span of mutant over span of wild type; Fig 7. The method, then:
as §1

Test [14] concerns the target mβ2AR::GFP fusion NtΔ9AA/ΔCt➔Y350/ΔC341 (Mus musculus, UniProt P18762, DEL341, form not given). As to conditions: span of mutant over span of wild type; Fig 3. As to the method: as §1
For test [15], the target named is mβ2AR::GFP fusion Y326A/ΔCt➔R328 (Mus musculus, UniProt P18762, Y326A). As to conditions: FLIPR dose response; Fig 6E, comparable to no plasmid-mock transfection. The method, then:
as §1

For test [16], the target named is mβ2AR::GFP fusion mβ2AR/M71-Ct (Mus musculus, UniProt P18762). As to conditions: span of mutant over span of wild type; Fig 7. As to the method:
as §1

Test [17] concerns the target mβ2AR::GFP fusion no-NxS/Y326A/ΔCt➔R328 (Mus musculus, UniProt P18762, N15A/N6A/Y326A). As to conditions: FLIPR dose response; Fig 6E and 6F, comparable to mock. The method, then: as §1
For test [18], the target named is mβ2AR::GFP fusion ΔCt➔A335 (Mus musculus, UniProt P18762). The settings on record: FLIPR dose response; Fig 5E. As to the method: as §1
The target of test [19] is mβ2AR::GFP fusion ΔCt➔Q337 (Mus musculus, UniProt P18762). As to conditions: FLIPR dose response; Fig 5E. As to the method: as §1

The source of these data is publication PMC4626089, “In Vitro Mutational Analysis of the β2 Adrenergic Receptor, an In Vivo Surrogate Odorant Receptor” (PLoS ONE, 2015).

Consider `CCCCCCCC=O` [octanal], for which the “Ca2+ signals in response to octanal” value in test [1] is recorded as “do not show Ca^2+ signals”.

Consider `CC(C)NCC(O)c1ccc(O)c(O)c1` (centres unmarked) [Isoprenaline, isoprenaline], for which the Emax in [2] is 89%; in test [3], 58%; in test [4] it was 51%; in test [5] (read-out: Maximum response (% of mβ2AR::GFP), span of mutant over span of wild type), 58%; in test [6] it was 120%; in [7] it was 19%. For the same compound, the Emax in [8] worked out at 27%; in [9], 70%. Moreover, the “Maximum response (% of mβ2AR::GFP)” value in test [5] (span of mutant over span of wild type) is listed as ~ 60%; in test [11], 32%; in [13] it was 34%; in test [14], 77%; in [16] it was 47%. In addition, the induction by isoprenaline entry in [10], in test [12] and in test [17] was “not induced” in each case. For the same compound, in test [15], the “capacity to signal after isoprenaline exposure” value is “no capacity to signal”. Further, the isoprenaline-mediated responses entry in [18] and in test [19] was “do not find isoprenaline-mediated responses” each time.
